Key:
Assay in all cases: relative viability (nuclei count vs DMSO), 5 days (fraction); higher = more cells survive
NCI-H1651 = tested on: NCI-H1651
In short: (§1)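 Lung cancer cell lines in 1536-well plates were dosed by pin tool the day after seeding, either with one drug alone or with a fixed anchor-drug dose plus five library-drug doses (not always all listed) in √10 steps. After 5 days, cells were fixed and their nuclei stained in one step (final 0.05% Triton X-100, 1% formaldehyde, 1 ug/ml Hoechst), then counted on 4× images. Relative viability is the nuclei count in treated wells divided by that in vehicle wells. Values are medians of duplicate plates.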

LOU-NH91 = tested on: LOU-NH91
In short: as §1

NCI-H1395 = tested on: NCI-H1395
In short: as §1

NCI-H1437 = tested on: NCI-H1437
In short: as §1

NCI-H1734 = tested on: NCI-H1734
In short: as §1

SK-LU-1 = tested on: SK-LU-1
In short: as §1

LCLC-103H = tested on: LCLC-103H
In short: as §1

NCI-H2405 = tested on: NCI-H2405
In short: as §1

NCI-H23 = tested on: NCI-H23
In short: as §1

RERF-LC-KJ = tested on: RERF-LC-KJ
In short: as §1

NCI-H1792 = tested on: NCI-H1792
In short: as §1

NCI-H1915 = tested on: NCI-H1915
In short: as §1

NCI-H1793 = tested on: NCI-H1793
In short: as §1

NCI-H1975 = tested on: NCI-H1975
In short: as §1

EMC-BAC-2 = tested on: EMC-BAC-2
In short: as §1

UMC-11 = tested on: UMC-11
In short: as §1

HCC-78 = tested on: HCC-78
In short: as §1

NCI-H2023 = tested on: NCI-H2023
In short: as §1

EPLC-272H = tested on: EPLC-272H
In short: as §1

NCI-H661 = tested on: NCI-H661
In short: as §1

201T = tested on: 201T
In short: as §1

NCI-H647 = tested on: NCI-H647
In short: as §1

Work on O=C(O)CCCCC(CCSCc1ccccc1)SCc1ccccc1 (centres undefined) [CPI-613] + CC(=O)Nc1cccc(-n2c(=O)n(C3CC3)c(=O)c3c(Nc4ccc(I)cc4F)n(C)c(=O)c(C)c32)c1 [Trametinib] (partner 0.02 µM) yielded a relative viability (NCI-H1651; first compound 5 µM) of 0.771, a relative viability (NCI-H1651; first compound 15.81 µM) of 0.771 and a relative viability (NCI-H1651; first compound 50 µM) of 0.848. For the same molecule, the relative viability (NCI-H1651; first compound 158.11 µM) was 0.783, the relative viability (NCI-H1651; first compound 500 µM) was 0.765 and the relative viability (LOU-NH91; first compound 5 µM) was 0.767. The relative viability (LOU-NH91; first compound 15.81 µM) was 0.723, the relative viability (LOU-NH91; first compound 50 µM) was 0.775 and the relative viability (LOU-NH91; first compound 158.11 µM) was 0.775. It also gave a relative viability (LOU-NH91; first compound 500 µM) of 0.674, a relative viability (NCI-H1395; first compound 5 µM) of 0.901 and a relative viability (NCI-H1395; first compound 15.81 µM) of 1.05. For the same molecule, the relative viability (NCI-H1395; first compound 50 µM) was 0.928, the relative viability (NCI-H1395; first compound 158.11 µM) was 1.04 and the relative viability (NCI-H1395; first compound 500 µM) was 0.917. For the same molecule, the relative viability (NCI-H1437; first compound 5 µM) was 0.49, the relative viability (NCI-H1437; first compound 15.81 µM) was 0.431 and the relative viability (NCI-H1437; first compound 50 µM) was 0.467. The relative viability (NCI-H1437; first compound 158.11 µM) was 0.0999, the relative viability (NCI-H1437; first compound 500 µM) was 0.0568 and the relative viability (NCI-H1734; first compound 5 µM) was 0.615. It also gave a relative viability (NCI-H1734; first compound 15.81 µM) of 0.631, a relative viability (NCI-H1734; first compound 50 µM) of 0.593 and a relative viability (NCI-H1734; first compound 158.11 µM) of 0.482. For the same molecule, the relative viability (NCI-H1734; first compound 500 µM) was 0.101, the relative viability (SK-LU-1; first compound 5 µM) was 0.452 and the relative viability (SK-LU-1; first compound 15.81 µM) was 0.477. It also gave a relative viability (SK-LU-1; first compound 50 µM) of 0.365, a relative viability (SK-LU-1; first compound 158.11 µM) of 0.366 and a relative viability (SK-LU-1; first compound 500 µM) of 0.129. It also gave a relative viability (LCLC-103H; first compound 5 µM) of 0.67, a relative viability (LCLC-103H; first compound 15.81 µM) of 0.662 and a relative viability (LCLC-103H; first compound 50 µM) of 0.727. For the same molecule, the relative viability (LCLC-103H; first compound 158.11 µM) was 0.422, the relative viability (LCLC-103H; first compound 500 µM) was 0.372 and the relative viability (NCI-H2405; first compound 5 µM) was 0.633. It also gave a relative viability (NCI-H2405; first compound 15.81 µM) of 0.633, a relative viability (NCI-H2405; first compound 50 µM) of 0.619 and a relative viability (NCI-H2405; first compound 158.11 µM) of 0.494. It also gave a relative viability (NCI-H2405; first compound 500 µM) of 0.479, a relative viability (NCI-H23; first compound 5 µM) of 0.394 and a relative viability (NCI-H23; first compound 15.81 µM) of 0.25. For the same molecule, the relative viability (NCI-H23; first compound 50 µM) was 0.393, the relative viability (NCI-H23; first compound 158.11 µM) was 0.11 and the relative viability (NCI-H23; first compound 500 µM) was 0.0106. For the same molecule, the relative viability (RERF-LC-KJ; first compound 5 µM) was 0.76, the relative viability (RERF-LC-KJ; first compound 15.81 µM) was 0.878 and the relative viability (RERF-LC-KJ; first compound 50 µM) was 0.845. The relative viability (RERF-LC-KJ; first compound 158.11 µM) was 0.458, the relative viability (RERF-LC-KJ; first compound 500 µM) was 0.44 and the relative viability (NCI-H1792; first compound 5 µM) was 0.381. For the same molecule, the relative viability (NCI-H1792; first compound 15.81 µM) was 0.372, the relative viability (NCI-H1792; first compound 50 µM) was 0.355 and the relative viability (NCI-H1792; first compound 158.11 µM) was 0.291. It also gave a relative viability (NCI-H1792; first compound 500 µM) of 0.0761, a relative viability (NCI-H1915; first compound 5 µM) of 0.292 and a relative viability (NCI-H1915; first compound 15.81 µM) of 0.284. The relative viability (NCI-H1915; first compound 50 µM) was 0.299, the relative viability (NCI-H1915; first compound 158.11 µM) was 0.216 and the relative viability (NCI-H1915; first compound 500 µM) was 0.148. It also gave a relative viability (NCI-H1793; first compound 5 µM) of 0.429, a relative viability (NCI-H1793; first compound 15.81 µM) of 0.413 and a relative viability (NCI-H1793; first compound 50 µM) of 0.405. The relative viability (NCI-H1793; first compound 158.11 µM) was 0.225, the relative viability (NCI-H1793; first compound 500 µM) was 0.0839 and the relative viability (NCI-H1975; first compound 5 µM) was 0.395. It also gave a relative viability (NCI-H1975; first compound 15.81 µM) of 0.355, a relative viability (NCI-H1975; first compound 50 µM) of 0.272 and a relative viability (NCI-H1975; first compound 158.11 µM) of 0.348. For the same molecule, the relative viability (NCI-H1975; first compound 500 µM) was 0.0712, the relative viability (EMC-BAC-2; first compound 5 µM) was 0.928 and the relative viability (EMC-BAC-2; first compound 15.81 µM) was 0.884. For the same molecule, the relative viability (EMC-BAC-2; first compound 50 µM) was 0.906, the relative viability (EMC-BAC-2; first compound 158.11 µM) was 0.521 and the relative viability (EMC-BAC-2; first compound 500 µM) was 0.639. The relative viability (UMC-11; first compound 5 µM) was 0.632, the relative viability (UMC-11; first compound 15.81 µM) was 0.703 and the relative viability (UMC-11; first compound 50 µM) was 0.437. It also gave a relative viability (UMC-11; first compound 158.11 µM) of 0.495, a relative viability (UMC-11; first compound 500 µM) of 0.0937 and a relative viability (HCC-78; first compound 15.81 µM) of 0.729. For the same molecule, the relative viability (HCC-78; first compound 50 µM) was 0.788, the relative viability (HCC-78; first compound 158.11 µM) was 0.714 and the relative viability (HCC-78; first compound 500 µM) was 0.716. It also gave a relative viability (NCI-H2023; first compound 5 µM) of 0.57, a relative viability (NCI-H2023; first compound 15.81 µM) of 0.605 and a relative viability (NCI-H2023; first compound 50 µM) of 0.499. The relative viability (NCI-H2023; first compound 158.11 µM) was 0.0445, the relative viability (NCI-H2023; first compound 500 µM) was 0.0048 and the relative viability (EPLC-272H; first compound 5 µM) was 0.233. For the same molecule, the relative viability (EPLC-272H; first compound 15.81 µM) was 0.232, the relative viability (EPLC-272H; first compound 50 µM) was 0.29 and the relative viability (EPLC-272H; first compound 158.11 µM) was 0.222. It also gave a relative viability (EPLC-272H; first compound 500 µM) of 0.268, a relative viability (NCI-H661; first compound 5 µM) of 0.528 and a relative viability (NCI-H661; first compound 15.81 µM) of 0.532. It also gave a relative viability (NCI-H661; first compound 50 µM) of 0.541, a relative viability (NCI-H661; first compound 158.11 µM) of 0.263 and a relative viability (NCI-H661; first compound 500 µM) of 0.133. It also gave a relative viability (201T; first compound 5 µM) of 0.709, a relative viability (201T; first compound 15.81 µM) of 0.701 and a relative viability (201T; first compound 50 µM) of 0.668. The relative viability (201T; first compound 158.11 µM) was 0.421, the relative viability (201T; first compound 500 µM) was 0.408 and the relative viability (NCI-H647; first compound 5 µM) was 0.378. It also gave a relative viability (NCI-H647; first compound 15.81 µM) of 0.388, a relative viability (NCI-H647; first compound 50 µM) of 0.38 and a relative viability (NCI-H647; first compound 158.11 µM) of 0.0824. It also gave a relative viability (NCI-H647; first compound 500 µM) of 0.0504.
